Experimental data from article PMC7281072 (Cancers, 2020).
Read-outs that look alike come from different tables or passages of the source.

What was measured:
pERK1,2 [1] = test: Western immunoblotting densitometry, pERK1,2, SKOV-3 cells; type: cell-based, human; conditions: 25 μM; for ratio [pERK1+pERK2]/[GAPDH] band intensity: SKOV-3 cells; for ratio [pERK1+pERK2]/[GAPDH] band intensity, single blot (panel A): panel A lower set, cell line not given
ERK1,2 phosphorylation = test: ERK1/2 phosphorylation ELISA, OVCAR-5 cells; type: cell-based, human; conditions: for Vmax ± SE, pERK 1/2 inhibition: Michaelis Menten model; for IC50: Homo sapiens, read-out: IC50, pERK 1/2 inhibition
pERK1,2 [2] = test: Western immunoblotting densitometry, pERK1,2, OVCAR-3 cells; type: cell-based, human; conditions: 25 μM; for ratio [pERK1+pERK2]/[GAPDH] band intensity: OVCAR-3 cells; for ratio [pERK1+pERK2]/[GAPDH] band intensity, single blot (panel A): panel A upper set, cell line not given
pAKT [3] = test: Western immunoblotting densitometry, pAKT, OVCAR-3 cells; type: cell-based, human; conditions: 25 μM; for ratio [pAKT]/[GAPDH] band intensity: OVCAR-3 cells; for ratio [pAKT]/[GAPDH] band intensity, single blot (panel A): panel A upper set, cell line not given, control ratio 1.21
AKT1,2 phosphorylation [4] = test: AKT phosphorylation ELISA, OVCAR-3 cells; type: cell-based, human; conditions: for Vmax ± SE, pAKT 1/2 inhibition: Michaelis Menten model; for IC50: Homo sapiens, read-out: IC50, pAKT 1/2 inhibition
pAKT [5] = test: Western immunoblotting densitometry, pAKT, SKOV-3 cells; type: cell-based, human; conditions: 25 μM; for ratio [pAKT]/[GAPDH] band intensity: SKOV-3 cells; for ratio [pAKT]/[GAPDH] band intensity, single blot (panel A): panel A lower set, cell line not given, control ratio 0.996
AKT1,2 phosphorylation [6] = test: AKT phosphorylation ELISA, OVCAR-5 cells; type: cell-based, human; conditions: for Vmax ± SE, pAKT 1/2 inhibition: Michaelis Menten model; for IC50: Homo sapiens, read-out: IC50, pAKT 1/2 inhibition
[7] = system: UWB1.289 cancer cell line; test: cells; conditions: Homo sapiens, UWB1289, 48 h
[8] = system: UWB1.289+BRCA1 cancer cell line; test: cells; conditions: Homo sapiens, 48 h, read-out: GI50 (50% Growth Inhibition)

SMILES: C[C@]12CC[C@@H]3c4ccc(OC(=O)CCOc5ccc(N(CCCl)CCCl)cc5)cc4CC[C@H]3[C@@H]1CCC(=O)N2 [ENGA-L08E, 12a-methyl-2-oxo-1,2,3,4,4a,4b,5,6,10b,11,12,12a-dodecahydronaphtho[2,1-f]quinolin-8-yl 3-(4-(bis (2-chloroethyl)amino)phenoxy) propanoate]
- ratio [pERK1+pERK2]/[GAPDH] band intensity (pERK1,2 [1]; 15min, control ratio 1.70): 1.89
- ratio [pERK1+pERK2]/[GAPDH] band intensity (pERK1,2 [1]; 30min, control ratio 1.70): 1.61
- ratio [pERK1+pERK2]/[GAPDH] band intensity (pERK1,2 [1]; 1h, control ratio 1.78): 1.08
- ratio [pERK1+pERK2]/[GAPDH] band intensity (pERK1,2 [1]; 3h, control ratio 1.74): 0.89
- ratio [pERK1+pERK2]/[GAPDH] band intensity (pERK1,2 [1]; 12h, control ratio 1.61): 0.85
- ratio [pERK1+pERK2]/[GAPDH] band intensity, single blot (panel A) (pERK1,2 [1]; 1h, control ratio 1.78): 0.54
- ratio [pERK1+pERK2]/[GAPDH] band intensity, single blot (panel A) (pERK1,2 [1]; 3h, control ratio 1.78): 0.49
- Vmax ± SE, pERK 1/2 inhibition (ERK1,2 phosphorylation; 15 min): 63.85 ± 3.62
- Vmax ± SE, pERK 1/2 inhibition (ERK1,2 phosphorylation; 30 min): 67.94 ± 4.54
- Vmax ± SE, pERK 1/2 inhibition (ERK1,2 phosphorylation; 60 min): 69.19 ± 2.95
- IC50 (ERK1,2 phosphorylation; 0.25 h, 15 min): 32.4 µM
- IC50 (ERK1,2 phosphorylation; 0.5 h, 30 min): 17 µM
- IC50 (ERK1,2 phosphorylation; 1 h, 60 min): 10.9 µM
- TGI (Total Growth Inhibition) (OVCAR-3 cancer cell line): 40 ± 2.7 μΜ
- ratio [pERK1+pERK2]/[GAPDH] band intensity (pERK1,2 [2]; 30min, control ratio 1.71): 1.01
- ratio [pERK1+pERK2]/[GAPDH] band intensity (pERK1,2 [2]; 1h, control ratio 1.65): 0.94
- ratio [pERK1+pERK2]/[GAPDH] band intensity (pERK1,2 [2]; 3h, control ratio 1.99): 0.83
- ratio [pERK1+pERK2]/[GAPDH] band intensity (pERK1,2 [2]; 6h, control ratio 1.85): 0.76
- ratio [pERK1+pERK2]/[GAPDH] band intensity (pERK1,2 [2]; 12h, control ratio 1.82): 0.76
- ratio [pERK1+pERK2]/[GAPDH] band intensity (pERK1,2 [2]; 24h, control ratio 1.92): 0.84
- ratio [pERK1+pERK2]/[GAPDH] band intensity, single blot (panel A) (pERK1,2 [2]; 1h, control ratio 1.85): 0.51
- ratio [pERK1+pERK2]/[GAPDH] band intensity, single blot (panel A) (pERK1,2 [2]; 3h, control ratio 1.85): 0.28
- TGI (Total Growth Inhibition) (OVCAR-5 cancer cell line): 60 ± 2.7 μΜ
- ratio [pAKT]/[GAPDH] band intensity (pAKT [3]; 30min, control ratio 1.23): 0.93
- ratio [pAKT]/[GAPDH] band intensity (pAKT [3]; 1h, control ratio 1.14): 0.60
- ratio [pAKT]/[GAPDH] band intensity (pAKT [3]; 3h, control ratio 1.27): 0.52
- ratio [pAKT]/[GAPDH] band intensity (pAKT [3]; 6h, control ratio 1.26): 0.47
- ratio [pAKT]/[GAPDH] band intensity (pAKT [3]; 12h, control ratio 1.18): 0.48
- ratio [pAKT]/[GAPDH] band intensity (pAKT [3]; 24h, control ratio 1.29): 0.54
- ratio [pAKT]/[GAPDH] band intensity, single blot (panel A) (pAKT [3]; 1h): 0.40
- ratio [pAKT]/[GAPDH] band intensity, single blot (panel A) (pAKT [3]; 3h): 0.34
- Vmax ± SE, pAKT 1/2 inhibition (AKT1,2 phosphorylation [4]; 15 min): 65.97 ± 1.60
- Vmax ± SE, pAKT 1/2 inhibition (AKT1,2 phosphorylation [4]; 30 min): 75.64 ± 0.99
- Vmax ± SE, pAKT 1/2 inhibition (AKT1,2 phosphorylation [4]; 60 min): 78.39 ± 4.18
- IC50 (AKT1,2 phosphorylation [4]; 0.25 h, 15 min): > 50 µM
- IC50 (AKT1,2 phosphorylation [4]; 0.5 h, 30 min): 12.8 µM
- IC50 (AKT1,2 phosphorylation [4]; 1 h, 60 min): 14.2 µM
- ratio [pAKT]/[GAPDH] band intensity (pAKT [5]; 15min, control ratio 0.98): 1.04
- ratio [pAKT]/[GAPDH] band intensity (pAKT [5]; 30min, control ratio 0.98): 0.66
- ratio [pAKT]/[GAPDH] band intensity (pAKT [5]; 1h, control ratio 1.02): 0.63
- ratio [pAKT]/[GAPDH] band intensity (pAKT [5]; 3h, control ratio 0.99): 0.52
- ratio [pAKT]/[GAPDH] band intensity (pAKT [5]; 12h, control ratio 0.94): 0.50
- ratio [pAKT]/[GAPDH] band intensity, single blot (panel A) (pAKT [5]; 1h): 0.22
- ratio [pAKT]/[GAPDH] band intensity, single blot (panel A) (pAKT [5]; 3h): 0.20
- Vmax ± SE, pAKT 1/2 inhibition (AKT1,2 phosphorylation [6]; 15 min): 60.45 ± 3.65
- Vmax ± SE, pAKT 1/2 inhibition (AKT1,2 phosphorylation [6]; 30 min): 61.17 ± 0.62
- Vmax ± SE, pAKT 1/2 inhibition (AKT1,2 phosphorylation [6]; 60 min): 61.47 ± 2.03
- IC50 (AKT1,2 phosphorylation [6]; 0.25 h, 15 min): > 50 µM
- IC50 (AKT1,2 phosphorylation [6]; 0.5 h, 30 min): 34.2 µM
- IC50 (AKT1,2 phosphorylation [6]; 1 h, 60 min): 28.3 µM
- GI50 ([7]; read-out: GI50 (50% Growth Inhibition)): 8 ± 0.9 µM
- IC50 ([7]; read-out: IC50 (cytotoxic effect)): 45 ± 3.3 µM
- GI50 [8]: 18 ± 1 µM
